Structures are written as SMILES. Where only a bound is given, the exact number is not on record here.

Test [1] deals with T1, ATF6 (Homo sapiens, UniProt P18850).
T1 construct: endogenous in cells; host or cells: U2-OS (ATCC HTB-96) stably transduced with the Cignal Lenti ATF6 luc reporter (Qiagen #CLS-6031L)
T1 sequence (P18850 1-670): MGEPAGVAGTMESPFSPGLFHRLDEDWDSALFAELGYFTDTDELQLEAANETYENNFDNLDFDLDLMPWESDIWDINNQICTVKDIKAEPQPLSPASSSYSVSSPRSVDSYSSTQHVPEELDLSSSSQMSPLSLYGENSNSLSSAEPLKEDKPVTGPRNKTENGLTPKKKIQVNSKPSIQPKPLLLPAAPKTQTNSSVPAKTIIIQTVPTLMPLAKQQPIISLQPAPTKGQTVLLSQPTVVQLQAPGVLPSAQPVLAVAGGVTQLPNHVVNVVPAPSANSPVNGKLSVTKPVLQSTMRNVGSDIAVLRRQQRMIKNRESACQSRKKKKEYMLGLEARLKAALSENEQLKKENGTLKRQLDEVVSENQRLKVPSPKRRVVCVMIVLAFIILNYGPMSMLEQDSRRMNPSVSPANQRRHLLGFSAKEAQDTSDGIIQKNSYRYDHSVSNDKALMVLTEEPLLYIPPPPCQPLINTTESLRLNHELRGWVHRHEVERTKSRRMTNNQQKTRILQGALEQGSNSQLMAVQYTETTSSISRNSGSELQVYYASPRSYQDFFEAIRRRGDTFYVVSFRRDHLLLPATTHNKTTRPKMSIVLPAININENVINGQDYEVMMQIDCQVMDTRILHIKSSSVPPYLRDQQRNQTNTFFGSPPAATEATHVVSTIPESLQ
Put plainly: ERSE ATF6-luciferase assay in presence of Tg-induced ER stress (U2-OS ATF6 TRE-luciferase reporter cells). The class given is cell-based. The conditions noted are these: in presence of ER stress (thapsigargin), Tg only = 100%; for activity at 1 µM / activity at 10 µM: U2OS, 8 h; for activity at 1 µM / ATF6 activity @ 1 μM [%]: 1 μM test compound; for activity at 10 µM / ATF6 activity @ 10 μM [%]: 10 μM test compound; for ATF6 activity @ 1 μM [%] / ATF6 activity @ 10 μM [%]: 8 hr. On the procedure: (§1) To understand how exemplary compounds of the invention modulate the activity of ATF6 in absence or presence of endoplasmic reticulum (ER) stress, a Human bone osteosarcoma (U2-OS)-based TRE-luciferase reporter stable cell line was generated to determine the modulation of transcription of ATF6 target genes.
(§2) U2-OS cells were obtained from the American Type Culture Collection (ATCC HTB-96, ATCC Manassas, VA) and were cultured with growing medium containing Dulbecco's Modified Eagle's Medium (DMEM) (Cat. No.: SH30023.02, HyClone) supplemented with fetal bovine serum (FBS) 10% (Cat. No.: 16000044, Gibco) and 1% penicillin-streptomycin antibiotic cocktail (Cat. No.: SV30010, Hyclone).
(§3) Cignal Lenti ATF6 luc reporter (Qiagen #CLS-6031L) was used to produce a stable cell line in U2-OS cells (U2-OS ATF6 TRE-luciferase reporter). The lenti ATF6 reporter is a preparation of replication incompetent, VSV-g pseudotyped lentivirus particles expressing the firefly luciferase gene under the control of a minimal (m)CMV promoter and tandem repeats of the ATF6 transcriptional response element (TRE). The number of response elements as well as the intervening sequence between response elements has been experimentally optimized to maximize the signal to noise ratio.
(§4) Exemplary compounds of the invention and reference compounds were prepared from powder as 10 mM stock solutions in dimethyl sulfoxide (DMSO; Cat. No. #D2650, Sigma Aldrich) and stored at −80° C. in presence of N2 neutral atmosphere.
(§5) For the primary screening, 40,000 U2-OS ATF6 TRE-luciferase reporter cells were plated in poly-D-lysine (Cat. No.: P2636, Sigma) pre-coated white 96-well plates (Thermo Scientific Nunc #136101) with 100 μL of growing medium. Cells were incubated in humidified chambers for 24 hr.
For testing exemplary compounds in presence of ER-stress, cells were pre-treated for 30 min with 50 μL growing medium containing either vehicle (DMSO), 1 or 10 μM test compound. After this pre-incubation, 50 μL of a solution containing 0.2 μM of the ER stress-inducer thapsigargin (Tg) was added to the appropriate wells. The Tg solution also contains vehicle or test compounds at 1 or 10 μM as indicated. The final concentration of DMSO in each well was kept at 0.3%. Plates were incubated for 8 hr in humidified chambers.
After the 8 hr incubation, plates were cooled down to room temperature for 10 min prior to the luciferase assays. Luciferase reactions were performed using Luciferase Assay System (Cat. No.: E4550, Promega). Briefly, each well was washed with 100 μl of PBS 1× and, then, 20 μl of lysis reagent was added into each well. Plates were shaken for 10 min and, then, 50 μl of Luciferase Assay Reagent was added to each well. Luminescence was determined by integration of 1 s with a gain of 110 in a Synergy 4 Microplate reader. All measurements were carried out in triplicate.
The average activity determined from the wells containing vehicle only (DMSO, 0% of ATF6 activity) was used as blank and subtracted from the rest of measurements. The average activity determined from the wells containing Tg only was used as 100% of ATF6 activity. The percentage of modulation of exemplary compounds was calculated by normalizing values to potential maximal activation with Tg.
ATF6 activities of exemplary compounds at 1 and 10 μM in presence Tg-induced ER stress tested in the U2-OS ATF6 TRE-luciferase reporter cells were determined and are shown in Table 2-2 and Table 3-2.
(In general: Reporter assays use an easily measured gene product as a stand-in for the process of interest.)

Test [2] has as its target T1, ATF6. Put plainly: ERSE ATF6-luciferase assay in absence of ER stress (U2-OS ATF6 TRE-luciferase reporter cells). The class given is cell-based. The conditions noted are these: in absence of ER stress (no Tg), normalized to maximal activation with Tg; for activation at 1 µM / activation at 10 µM: U2OS, 8 h; for activation at 1 µM / ATF6 activity @ 1 μM-No Tg [%]: 1 μM test compound; for activation at 1 µM: Table 3-3, read-out: ATF6 activity @ 1 μM-No Tg [%]; for activation at 10 µM / ATF6 activity @ 10 μM - No Tg [%]: 10 μM test compound; for activation at 10 µM: Table 3-3, read-out: ATF6 activity @ 10 μM - No Tg [%]; for ATF6 activity @ 1 μM-No Tg [%] / ATF6 activity @ 10 μM - No Tg [%]: 8 hr, Table 3-3. How it is done:
as §1, §2, §3, §4, §5
For testing exemplary compounds in absence of ER-stress, cells were treated for 8 hr with 100 μL growing medium containing either vehicle (DMSO), 1 or 10 μM test compound or 0.1 μM Tg. The final concentration of DMSO in each well was kept at 0.3%. Plates were incubated in humidified chambers.
After 8 hr of incubation, plates were cooled down to room temperature for 10 min prior to luciferase assays. Luciferase reactions were performed as above. Luminescence was read by integration of 1 s with a gain of 110 in a Synergy 4 Microplate reader. All measurements were carried out in triplicate.
The average activity determined from the wells containing vehicle only (DMSO, 0% of ATF6 activity) was used as blank and subtracted from the rest of measurements. The percentage of modulation of exemplary compound was calculated by normalizing values to potential maximal activation with Tg.
ATF6 activities of exemplary compounds at 1 and 10 μM in absence of Tg-induced ER stress in the U2-OS ATF6 TRE-luciferase reporter cells were determined and are shown in Table 3-2, and Table 3-3.

In the case of `CC(C1CCCC1)n1cc(NC(=O)c2cc(-c3ccco3)on2)cn1` (stereo not drawn) [Compound 3-5, N-(1-(1-cyclopentylethyl)-1H-pyrazol-4-yl)-5-(furan-2-yl)isoxazole-3-carboxamide], on ATF6 [1] (Table 2-3), the activity at 1 µM is 125 to 150% and the activity at 10 µM was more than 150%. Moreover, at ATF6 [2], the activation at 1 µM lay in the range of 0 to 25% and the activation at 10 µM is 0 to 25%.
Regarding `CC(C1CCOC1)n1cc(NC(=O)c2cc(-c3ccco3)on2)cn1` (stereo not drawn) [Compound 3-25, 5-(furan-2-yl)-N-(1-(1-(tetrahydrofuran-3-yl)ethyl)-1H-pyrazol-4-yl)isoxazole-3-carboxamide], on ATF6 [1] (Table 2-3), the “ATF6 activity @ 1 μM [%]” value is on record as “+ (+ refers to 100% < % activity < 125% at 1 or 10 μM)” and the “ATF6 activity @ 10 μM [%]” value is recorded as “+++ (+++ refers to >150% at 1 or 10 μM test compound)”. At ATF6 [2], the “ATF6 activity @ 1 μM-No Tg [%]” value is recorded as “+ (+ refers to 0% < % activity < 25% at 1 or 10 μM test compound)” and the “ATF6 activity @ 10 μM - No Tg [%]” value is listed as “+ (+ refers to 0% < % activity < 25% at 1 or 10 μM test compound)”.
Take `O=C(Nc1cnn(Cc2c(Cl)cncc2Cl)c1)c1cc(-c2ccco2)on1` [Compound 3-6, N-(1-((3,5-dichloropyridin-4-yl)methyl)-1H-pyrazol-4-yl)-5-(furan-2-yl)isoxazole-3-carboxamide]: on ATF6 [1] (Table 2-3), the activity at 1 µM was 100 to 125% and the activity at 10 µM lay in the range of 125 to 150%. Besides, on ATF6 [2], the activation at 1 µM was in the range of 0 to 25% and the activation at 10 µM fell in the range of 0 to 25%.
For `O=C(Nc1cnn(C2CCOC2)c1)c1cc(-c2ccccn2)on1` (single isomer, unassigned) [Compound 3-20, 5-(pyridin-2-yl)-N-(1-(tetrahydrofuran-3-yl)-1H-pyrazol-4-yl)isoxazole-3-carboxamide], at ATF6 [1] (Table 2-3), the “ATF6 activity @ 1 μM [%]” value is listed as “+ (+ refers to 100% < % activity < 125% at 1 or 10 μM)” and the activity at 10 µM is more than 150%. On ATF6 [2], the “ATF6 activity @ 10 μM - No Tg [%]” value is on record as “+ (+ refers to 0% < % activity < 25% at 1 or 10 μM test compound)” and the activation at 1 µM was 0 to 25%.
Regarding `O=C(Nc1cnn(C2CCOC2)c1)c1cc(-c2cccs2)on1` (stereo not drawn) [Compound 3-19, N-(1-(tetrahydrofuran-3-yl)-1H-pyrazol-4-yl)-5-(thiophen-2-yl)isoxazole-3-carboxamide], on ATF6 [1] (Table 2-3), the activity at 1 µM is more than 150% and the activity at 10 µM is more than 150%. On ATF6 [2], the activation at 1 µM is 0 to 25% and the activation at 10 µM lay within 25 to 50%.
As for `CC(C1CCCC1)n1cc(NC(=O)c2cc(-c3ccco3)on2)cn1` (single isomer, unassigned) [Compound 3-17, N-(1-(1-cyclopentylethyl)-1H-pyrazol-4-yl)-5-(furan-2-yl)isoxazole-3-carboxamide], at ATF6 [1] (Table 2-3), the “ATF6 activity @ 1 μM [%]” value is “++ (++ refers to 125% < % activity < 150% at 1 or 10 μM test compound)” and the activity at 10 µM lay in the range of 125 to 150%. For the same compound, on ATF6 [2], the activation at 1 µM was in the range of 0 to 25% and the activation at 10 µM fell in the range of 0 to 25%.
Regarding `O=C(Nc1cnn(C2CNC2)c1)c1cc(-c2ccco2)on1` [Compound 3-3, N-(1-(azetidin-3-yl)-1H-pyrazol-4-yl)-5-(furan-2-yl)isoxazole-3-carboxamide], at ATF6 [1] (Table 2-3), the activity at 1 µM lay in the range of 125 to 150%. Also, the activation at 1 µM on ATF6 [2] lay in the range of 0 to 25%.
As to `O=C(Nc1cnn(C2CCNC2)c1)c1cc(-c2ccco2)on1` (stereo not drawn) [Compound 3-4, 5-(furan-2-yl)-N-(1-(pyrrolidin-3-yl)-1H-pyrazol-4-yl)isoxazole-3-carboxamide], on ATF6 [1] (Table 2-3), the activity at 1 µM lay within 125 to 150% and the activity at 10 µM is more than 150%. For the same compound, on ATF6 [2], the activation at 1 µM was 0 to 25% and the activation at 10 µM lay within 0 to 25%.
As for `CC(C1CCOC1)n1cc(NC(=O)c2cc(-c3ccco3)on2)cn1` (stereo not drawn) [Compound 3-27, 5-(furan-2-yl)-N-(1-(1-(tetrahydrofuran-3-yl)ethyl)-1H-pyrazol-4-yl)isoxazole-3-carboxamide], at ATF6 [1] (Table 2-3), the “ATF6 activity @ 1 μM [%]” value is reported as “+ (+ refers to 100% < % activity < 125% at 1 or 10 μM)” and the “ATF6 activity @ 10 μM [%]” value is listed as “+++ (+++ refers to >150% at 1 or 10 μM test compound)”. Besides, at ATF6 [2], the “ATF6 activity @ 1 μM-No Tg [%]” value was “+ (+ refers to 0% < % activity < 25% at 1 or 10 μM test compound)” and the “ATF6 activity @ 10 μM - No Tg [%]” value is “++ (++ refers to 25% < % activity < 50% at 1 or 10 μM test compound)”.
On to `CC(c1ccc(C(F)(F)F)cc1C(F)(F)F)n1cc(C#Cc2nnc(-c3ccccn3)s2)cn1` (stereo not drawn) [Compound 2-1, 2-((1-(1-(2,4-bis(trifluoromethyl)phenyl)ethyl)-1H-pyrazol-4-yl)ethynyl)-5-(pyridin-2-yl)-1,3,4-thiadiazole], for which, at ATF6 [1] (Table 2-2), the “ATF6 activity @ 1 μM [%]” value is reported as “−− (−− refers to 50% < % activity < 75% at 1 or 10 μM test compound)” and the “ATF6 activity @ 10 μM [%]” value is recorded as “−−− (−−− refers to <50% at 1 or 10 μM test compound)”.

Source of the values: patent US12662478B2, “ATF6 modulators and uses thereof” (Altos Labs, Inc., priority 2019, dated 2026).
